Test [1] relates to RAG target in human RAG1 gene, 293H cells. The experiment in a line: Meganuclease-induced mutagenesis assay at RAG recognition site. Particulars: Empty vector, 1 μM 5-aza-2′-deoxycytidine, RAG locus. In kind it is cell-based. As for the experimental part: The human 293H cells (ATCC) were plated at a density of 1.2×10^6 cells per 10 cm dish in complete medium (DMEM supplemented with 2 mM L-glutamine, penicillin (100 IU/ml), streptomycin (100 μg/ml), amphotericin B (Fongizone: 0.25 μg/ml, Invitrogen-Life Science) and 10% FBS). The cells were pre-treated with 5-aza-deoxycytidine at 0.2 μM or 1 μM, 48 hours before transfection and the treatment was maintained 48 hours post-transfection. The medium was changed every day. The cells were transfected with 3 μg of DNA plasmids encoding meganuclease for RAG or 2.5 μg of each monomer CAPNS1 using Lipofectamine 2000 transfection reagent (Invitrogen) according to the manufacturer's protocol.
The efficiency of the meganuclease to promote mutagenesis at its endogenous recognition site was evaluated by sequencing the DNA surrounding the meganuclease cleavage site. Two days post-transfection, genomic DNA was extracted. 200 ng of genomic DNA were used to amplify (PCR amplification) the endogenous locus surrounding the meganuclease cleavage site. PCR amplification is performed to obtain a fragment flanked by specific adaptor sequences [adaptor A: 5′-[…]-NNNN-3′(SEQ ID NO: 46) and adaptor B, 5′-[…]-3′ (SEQ ID NO: 47)] provided by the company offering sequencing service (GATC Biotech AG, Germany) on the 454 sequencing system (454 Life Sciences). The primers sequences used for PCR amplification were:
RAG_F1: 5′-[…]-NNNN-[…] (SEQ ID NO: 57) and
RAG_R1: 5′-[…]-[…]-3′ (SEQ ID NO: 58) and CAPNS1_J3: 5′-[…]-NNNN-[…] (SEQ ID NO: 59) and CAPNS1_R3: 5′-[…]-[…]-3′ (SEQ ID NO: 60). Sequences specific to the locus are underlined. The sequence NNNN in primer F1 is a Barcode sequence (Tag) needed to link the sequence with a PCR product. The percentage of PCR fragments carrying insertion or deletion at the meganuclease cleavage site is related to the mutagenesis induced by the meganuclease through NHEJ pathway in a cell population, and therefore correlates with the meganuclease activity at its endogenous recognition site. 5000 to 10000 sequences were analyzed per conditions.

The next test has as its target C1221 DNA target. As to the kind of experiment: In vitro binding assay, fluorescence anisotropy of fluorescein-labeled C1221 duplex. Particulars: read-out: [I-CreI]50, apparent dissociation constant. As for the experimental part:
FIG. 1: Spectrofluorimetric titration of fluorescein-labeled C1221 by I-CreI. 50 nM C1221, containing either 0 or 4 methylated CG on both strands, was incubated with increasing concentrations of I-CreI (from 0 to 1.5 μM) in binding buffer (10 mM Tris-HCl, 150 mM NaCl, 10 mM CaCl2, 10 mM DTT, pH8) at 25° C. After 30 minutes incubation, the fluorescence anisotropy of the mixture was recorded and then plotted as a function of I-CreI concentration.
Fluorescein labeled C1221 oligonucleotides were synthesized and HPLC-purified by Eurogentec. […] C1221 duplex and fluorescein final concentrations were assessed by spectrophotometry using their respective extinction coefficients ε260nm=62900 M^−1 cm^−1 and ε495nm=83000 M^−1 cm^−1. […]
To investigate the binding of I-CreI to C1221 duplex, 50 nM of C1221 duplex was incubated with increasing concentrations of I-CreI (from 0 to 1.5 μM) in binding buffer (10 mM Tris-HCl, 150 mM NaCl, 10 mM CaCl2, 10 mM DTT, pH8) at 25° C. After 30 minutes incubation, the fluorescence anisotropy of the mixture was recorded with a Pherastar Plus (BMG Labtech) operating in fluorescence polarization end point mode with excitation and emission wavelengths set to 495 and 520 nm respectively. […] [I-CreI]50 is defined as the concentration of 1-CreI needed to reach 50% of the final fluorescence anisotropy.
In general terms: In fluorescence polarisation assays a small probe gives low polarisation when free and higher when bound to something large.

Where two headings read alike, the source gives them in different places.

For `Nc1ncn([C@H]2C[C@H](O)[C@@H](CO)O2)c(=O)n1` [5-aza-2′deoxycytidine, reference compound], the entries for the “mutagenesis, PCR fragments carrying a mutation” value in test [1] and in test [1] (listed as 5-aza-2′-deoxycytidine) were 0.04% and 0.04 ± 0.05%, respectively.

B1: I-CreI: wild-type I-CreI meganuclease (… homing endonuclease), SEQ ID NO: 1, recombinant Cterm His-tag (protein, listed as Chlamydomonas reinhardtii)
chain: MNTKYNKEFLLYLAGFVDGDGSIIAQIKPNQSYKFKHQLSLTFQVTQKTQRRWFLDKLVDEIGVGYVRDRGSVSDYILSEIKPLHNFLTQLQPFLKLKQKQANLVLKIIEQLPSAKESPDKFLEVCTWVDQIAALNDSKTRKTTSETVRAVLDSLSEKKKSSP
modifications: C-terminal His-tag
With B1, the Kd on C1221 DNA target (fully methylated C1221 (4 methylated CG on both strands)) is about 1000 nM; at C1221 DNA target (unmethylated C1221) it was 30 nM.
